Where two headings read alike, the source gives them in different places.
Experiment: 14-day oral gavage toxicokinetic study in rats
Type: in vivo
Conditions: male, rat, plasma, po; for concentration at 8 h / concentration at 12 h / concentration at 24 h / concentration at […] / concentration at 0.5 h / concentration at 1 h / concentration at 2 h / concentration at 4 h: rats; for half-life: read-out: t½ (converted)
Method: Plasma was obtained from blood samples collected from rats in a composite sampling scheme, with 3 samples collected per sex, per dose, at each target collection time, as illustrated in Table 21 to Table 25. Samples were collected from the vehicle control group on Day 1 and Day 14 at 3 hour after administration. […] Blood samples were collected in tubes containing K3EDTA as an anticoagulant and placed on ice until processed to plasma via centrifugation. Samples were stored frozen at −80° C. until shipment to the bioanalytical laboratory for analysis.
The following parameters were determined:
Cmax: Maximum observed plasma concentration (ng/mL).
A value of 0 ng/mL was assigned to all values below the lower limit of quantitation (BLQ, <10.0 ng/mL).
AUC(0-inf): Area under the plasma concentration vs. time curve extrapolated from 0 to infinity (ng*h/mL), calculated as AUC(0-t)+AUC(t-inf) where AUC(t-inf) is calculated as last measurable concentration (CLast) divided by ke, where ke is the elimination rate constant determined by linear regression of the last three analytically measured points on the log plasma concentration vs. time curve. The selection criteria of the data points for inclusion in the calculation of ke required that at least three data points representing the terminal phase (after Tmax) were regressed and that R2≧0.850 when rounded.
CL: Clearance (L/h/kg), calculated as the dose divided by AUC(0-t).
Vd: Volume of distribution (L/kg), calculated as dose divided by the product of ke and AUC(0-inf).
Vdss: Steady state volume of distribution (L/kg), calculated as clearance […] mean residence time, where mean residence time is calculated as the area under the first moment curve divided by AUC(0-t).
t½: Elimination half-life (h), calculated as ln(2)/ke, where ke is the elimination rate constant determined by linear regression. Half-life was defined as not determined if regression criteria (specified in AUC(0-inf) above) were not met.
Cmax/Dose: Normalized Cmax, calculated as Cmax divided by total dose.
AUC/Dose: Normalized AUC, calculated as AUC(0-t) divided by total dose.
ii. Statistical Analysis Mean and standard deviation (SD) were calculated in Watson. Values of BLQ were assigned a value of 0 ng/mL for mean calculations. Concentration values and derived TK parameters were reported to three significant figures.

[1] = 15 mg/kg, oral 15 mg/kg, Study Day 1, Male
[2] = 15 mg/kg, oral 15 mg/kg, Study Day 14, Male
[3] = 30 mg/kg, oral 30 mg/kg, Study Day 1, Male

CN1CCN(c2ccc(Nc3ncc4cc5n(c4n3)C3(CCCCC3)CNC5=O)nc2)CC1 [Compound 1, 2′-((5-(4-methylpiperazin-1-yl)pyridin-2-yl)amino)-7′,8′-dihydro-6′H-spiro[cyclohexane-1,9′-pyrazino[1′,2′:1,5]pyrrolo[2,3-d]pyrimidin]-6′-one]
concentration at 8 h (15 mg/kg, Mean Compound 1 Plasma Concentration, oral 15 mg/kg, Day 1, 8 h, Male): 1.02 µg/mL | concentration at 12 h (15 mg/kg, Mean Compound 1 Plasma Concentration, oral 15 mg/kg, Day 1, 12 h, Male): 0.618 µg/mL | concentration at 24 h (15 mg/kg, Mean Compound 1 Plasma Concentration, oral 15 mg/kg, Day 1, 24 h, Male): 0.0845 µg/mL | concentration at […] (15 mg/kg, Mean Compound 1 Plasma Concentration, oral 15 mg/kg, Day 1, […], Male): 0.0356 µg/mL | concentration at 0.5 h (15 mg/kg, Mean Compound 1 Plasma Concentration, oral 15 mg/kg, Day 14, 0.5 h, Male): 0.74 µg/mL | concentration at 1 h (15 mg/kg, Mean Compound 1 Plasma Concentration, oral 15 mg/kg, Day 14, 1 h, Male): 0.842 µg/mL | concentration at 2 h (15 mg/kg, Mean Compound 1 Plasma Concentration, oral 15 mg/kg, Day 14, 2 h, Male): 1.32 µg/mL | concentration at 4 h (15 mg/kg, Mean Compound 1 Plasma Concentration, oral 15 mg/kg, Day 14, 4 h, Male): 1.08 µg/mL | concentration at 8 h (15 mg/kg, Mean Compound 1 Plasma Concentration, oral 15 mg/kg, Day 14, 8 h, Male): 1.17 µg/mL | concentration at 12 h (15 mg/kg, Mean Compound 1 Plasma Concentration, oral 15 mg/kg, Day 14, 12 h, Male): 0.626 µg/mL | concentration at 24 h (15 mg/kg, Mean Compound 1 Plasma Concentration, oral 15 mg/kg, Day 14, 24 h, Male): 0.0606 µg/mL | concentration at […] (15 mg/kg, Mean Compound 1 Plasma Concentration, oral 15 mg/kg, Day 14, […], Male): 0.107 µg/mL | AUC(0-inf) [1]: 16 µg·h/mL | AUC(0-t) [1]: 15.5 µg·h/mL | Cmax [1]: 1.16 µg/mL | Tmax [1]: 4 h | half-life [1]: 4.39 h | AUC(0-t) [2]: 16.3 µg·h/mL | Cmax [2]: 1.32 µg/mL | Tmax [2]: 2 h | half-life [2]: 3.7 h | concentration at 0.5 h (30 mg/kg, Individual Compound 1 Plasma Concentration, daily oral 30 mg/kg, Day 1, Male, 0.5 h): 1.45 µg/mL | concentration at 1 h (30 mg/kg, Individual Compound 1 Plasma Concentration, daily oral 30 mg/kg, Day 1, Male, 1 h): 1.62 µg/mL | concentration at 2 h (30 mg/kg, Individual Compound 1 Plasma Concentration, daily oral 30 mg/kg, Day 1, Male, 2 h): 1.81 µg/mL | concentration at 4 h (30 mg/kg, Individual Compound 1 Plasma Concentration, daily oral 30 mg/kg, Day 1, Male, 4 h): 2.66 µg/mL | concentration at 8 h (30 mg/kg, Individual Compound 1 Plasma Concentration, daily oral 30 mg/kg, Day 1, Male, 8 h): 2 µg/mL | concentration at 12 h (30 mg/kg, Individual Compound 1 Plasma Concentration, daily oral 30 mg/kg, Day 1, Male, 12 h): 1.93 µg/mL | concentration at 24 h (30 mg/kg, Individual Compound 1 Plasma Concentration, daily oral 30 mg/kg, Day 1, Male, 24 h): 0.28 µg/mL | concentration at 0.5 h (30 mg/kg, Individual Compound 1 Plasma Concentration, daily oral 30 mg/kg, Day 14, Male, 0.5 h): 0.977 µg/mL | concentration at 2 h (30 mg/kg, Individual Compound 1 Plasma Concentration, daily oral 30 mg/kg, Day 14, Male, 2 h): 1.63 µg/mL | concentration at 4 h (30 mg/kg, Individual Compound 1 Plasma Concentration, daily oral 30 mg/kg, Day 14, Male, 4 h): 2.08 µg/mL | concentration at 8 h (30 mg/kg, Individual Compound 1 Plasma Concentration, daily oral 30 mg/kg, Day 14, Male, 8 h): 1.75 µg/mL | concentration at 12 h (30 mg/kg, Individual Compound 1 Plasma Concentration, daily oral 30 mg/kg, Day 14, Male, 12 h): 1.23 µg/mL | concentration at 24 h (30 mg/kg, Individual Compound 1 Plasma Concentration, daily oral 30 mg/kg, Day 14, Male, 24 h): 0.208 µg/mL | concentration at […] (30 mg/kg, Individual Compound 1 Plasma Concentration, daily oral 30 mg/kg, Day 14, Male, […]): 0.197 µg/mL | concentration at 0.5 h (30 mg/kg, Mean Compound 1 Plasma Concentration, oral 30 mg/kg, Day 1, 0.5 h, Male): 1.42 µg/mL | concentration at 1 h (30 mg/kg, Mean Compound 1 Plasma Concentration, oral 30 mg/kg, Day 1, 1 h, Male): 1.4 µg/mL | concentration at 2 h (30 mg/kg, Mean Compound 1 Plasma Concentration, oral 30 mg/kg, Day 1, 2 h, Male): 1.62 µg/mL | concentration at 4 h (30 mg/kg, Mean Compound 1 Plasma Concentration, oral 30 mg/kg, Day 1, 4 h, Male): 2.24 µg/mL | concentration at 8 h (30 mg/kg, Mean Compound 1 Plasma Concentration, oral 30 mg/kg, Day 1, 8 h, Male): 1.86 µg/mL | concentration at 24 h (30 mg/kg, Mean Compound 1 Plasma Concentration, oral 30 mg/kg, Day 1, 24 h, Male): 0.234 µg/mL | concentration at […] (30 mg/kg, Mean Compound 1 Plasma Concentration, oral 30 mg/kg, Day 1, […], Male): 0.208 µg/mL | concentration at 0.5 h (30 mg/kg, Mean Compound 1 Plasma Concentration, oral 30 mg/kg, Day 14, 0.5 h, Male): 0.993 µg/mL | concentration at 1 h (30 mg/kg, Mean Compound 1 Plasma Concentration, oral 30 mg/kg, Day 14, 1 h, Male): 1.53 µg/mL | concentration at 2 h (30 mg/kg, Mean Compound 1 Plasma Concentration, oral 30 mg/kg, Day 14, 2 h, Male): 1.59 µg/mL | concentration at 4 h (30 mg/kg, Mean Compound 1 Plasma Concentration, oral 30 mg/kg, Day 14, 4 h, Male): 2.03 µg/mL | concentration at 8 h (30 mg/kg, Mean Compound 1 Plasma Concentration, oral 30 mg/kg, Day 14, 8 h, Male): 1.88 µg/mL | concentration at 12 h (30 mg/kg, Mean Compound 1 Plasma Concentration, oral 30 mg/kg, Day 14, 12 h, Male): 1.3 µg/mL | concentration at […] (30 mg/kg, Mean Compound 1 Plasma Concentration, oral 30 mg/kg, Day 14, […], Male): 0.207 µg/mL | AUC(0-inf) [3]: 34.7 µg·h/mL | AUC(0-t) [3]: 33 µg·h/mL | Cmax [3]: 2.24 µg/mL | Tmax [3]: 4 h | half-life [3]: 5.05 h | AUC(0-inf) (30 mg/kg, oral 30 mg/kg, Study Day 14, Male): 30.7 µg·h/mL
